In PMC5514907, “Targeting of the breast cancer microenvironment with a potent and linkable oxindole based antiangiogenic small molecule” (Oncotarget, 2017):
Entries after “also recorded” stand apart in the source; their conditions may differ. Read-outs that look alike come from different tables or passages of the source.

Legend:
[1] = tested on: E0771 BrCa murine cell line; assay: In vivo antitumor efficacy, syngeneic model, orthotopic implantation; parameters: species or system C57BL/6 mice; conditions: 100 μmol/Kg daily IP
Excerpt: (§1) Despite the efficacy and favourable safety profile of SAP in xenografted models of primary BrCa, a critical question that remained was its evaluation in a more clinically relevant disease model of BrCa that would involve interaction of cancer with the immune system, which is crucial for the progression of the disease.

SKBR3 = assay: MTT cytotoxicity assay; type: cell-based; conditions: Homo sapiens, SK-BR-3
[2] = tested on: E0771 BrCa murine cell line; assay: In vivo antitumor efficacy, syngeneic model, ectopic implantation; parameters: species or system C57BL/6 mice; conditions: 100 μmol/Kg daily IP
Excerpt: as §1

[3] = Cardiotoxicity, echocardiography of LV function; type: in vivo, C57BL/6 female mice; conditions: for %FS (Fractional Shortening) at one week post treatment: 100 μmol/Kg daily IP, vehicle 46.34 ± 0.56
PDGFR-β [4] = target: T1, PDGFR-β (Mus musculus, UniProt P05622); assay: Cellular ligand-dependent autophosphorylation assay (Western blot) in NIH/3T3; type: cell-based; conditions: NIH/3T3, PDGF-BB stimulated, ± SD
T1 construct: host or cells: NIH/3T3
T1 sequence (P05622 32-1098): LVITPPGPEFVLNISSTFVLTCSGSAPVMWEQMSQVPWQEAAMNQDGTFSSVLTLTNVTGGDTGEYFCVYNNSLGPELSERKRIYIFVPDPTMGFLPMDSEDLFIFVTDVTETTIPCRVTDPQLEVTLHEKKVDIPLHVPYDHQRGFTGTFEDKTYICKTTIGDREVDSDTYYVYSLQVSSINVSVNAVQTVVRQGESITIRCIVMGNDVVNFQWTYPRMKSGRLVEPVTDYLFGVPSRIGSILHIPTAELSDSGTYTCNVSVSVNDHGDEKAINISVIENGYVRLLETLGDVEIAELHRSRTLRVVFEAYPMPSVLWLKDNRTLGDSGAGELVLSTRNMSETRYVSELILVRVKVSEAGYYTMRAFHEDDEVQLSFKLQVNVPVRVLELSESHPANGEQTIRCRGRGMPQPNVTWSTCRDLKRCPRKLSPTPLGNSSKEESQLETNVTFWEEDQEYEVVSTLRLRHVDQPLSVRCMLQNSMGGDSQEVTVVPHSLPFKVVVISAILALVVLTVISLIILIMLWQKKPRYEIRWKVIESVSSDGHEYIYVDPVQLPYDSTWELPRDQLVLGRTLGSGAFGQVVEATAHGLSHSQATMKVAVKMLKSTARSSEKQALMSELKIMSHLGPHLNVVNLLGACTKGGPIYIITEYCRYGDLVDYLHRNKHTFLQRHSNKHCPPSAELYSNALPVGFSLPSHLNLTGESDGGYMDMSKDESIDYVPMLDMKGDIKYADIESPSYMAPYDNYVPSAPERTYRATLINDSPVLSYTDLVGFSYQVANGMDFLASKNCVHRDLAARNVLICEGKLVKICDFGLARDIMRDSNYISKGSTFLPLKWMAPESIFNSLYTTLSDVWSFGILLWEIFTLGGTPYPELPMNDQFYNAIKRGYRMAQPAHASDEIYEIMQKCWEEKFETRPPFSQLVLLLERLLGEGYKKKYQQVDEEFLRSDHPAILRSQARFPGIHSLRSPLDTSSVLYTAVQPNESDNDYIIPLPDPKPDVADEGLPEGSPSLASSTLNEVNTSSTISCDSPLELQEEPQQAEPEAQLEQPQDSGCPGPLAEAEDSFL

in vivo [5] = conditions: female, NOD/SCID, mouse, blood, ip, 100 μmol/Kg
HCC1954 = assay: MTT cytotoxicity assay; type: cell-based; conditions: Homo sapiens
ZR75-1 = assay: MTT cytotoxicity assay; type: cell-based; conditions: Homo sapiens, ZR-75-1
[6] = parameters: method as in PMID 26645560; conditions: IP, equimolar dose, previous results ref 18; cited from earlier work
T47D = assay: MTT cytotoxicity assay; type: cell-based; conditions: Homo sapiens
[7] = tested on: phosphorylation status of 18 kinases; assay: In vivo kinase activity (PathScan intracellular signaling array) in HCC1954 tumor extracts; parameters: species or system NOD/SCID mice; conditions: HCC1954 tumors, d18
[8] = Hematotoxicity, blood analysis; conditions: 100 μmol/Kg daily IP, one week; vehicle 2.90 ± 0.8
in vivo [9] = conditions: female, NOD/SCID, mouse, blood, ip, 100 μmol/Kg; remark: listed apart in the source
MCF7 = assay: MTT cytotoxicity assay; type: cell-based; conditions: Homo sapiens
HCC1954 xenograft [10] = conditions: HCC1954, 100 μmol/Kg/day IP; for average tumor size at d18: 18 days, vehicle 428 ± 101; for neo-angiogenesis upon sacrifice: d18; for average tumor weight upon sacrifice (d18): vehicle 0.26 ± 0.07
MDA-MB-231 = assay: Wound healing/migration assay; type: cell-based; conditions: various concentrations, 24 hours
[11] = tested on: panel of BrCa cell lines and HUVEC; assay: MTT cytotoxicity assay, summary over all cell lines; type: cell-based; conditions: Homo sapiens, range over six BrCa cell lines and HUVEC
EGFR = target: T2, EGFR (Homo sapiens, UniProt P00533); assay: Biochemical tyrosine kinase assay (trans-phosphorylation, GST-fusion protein), negative control; conditions: in vitro kinase activity
T2 construct: 695-end; purchased Sigma Aldrich SRP5023
T2 sequence (P00533 695-1210 limits assumed): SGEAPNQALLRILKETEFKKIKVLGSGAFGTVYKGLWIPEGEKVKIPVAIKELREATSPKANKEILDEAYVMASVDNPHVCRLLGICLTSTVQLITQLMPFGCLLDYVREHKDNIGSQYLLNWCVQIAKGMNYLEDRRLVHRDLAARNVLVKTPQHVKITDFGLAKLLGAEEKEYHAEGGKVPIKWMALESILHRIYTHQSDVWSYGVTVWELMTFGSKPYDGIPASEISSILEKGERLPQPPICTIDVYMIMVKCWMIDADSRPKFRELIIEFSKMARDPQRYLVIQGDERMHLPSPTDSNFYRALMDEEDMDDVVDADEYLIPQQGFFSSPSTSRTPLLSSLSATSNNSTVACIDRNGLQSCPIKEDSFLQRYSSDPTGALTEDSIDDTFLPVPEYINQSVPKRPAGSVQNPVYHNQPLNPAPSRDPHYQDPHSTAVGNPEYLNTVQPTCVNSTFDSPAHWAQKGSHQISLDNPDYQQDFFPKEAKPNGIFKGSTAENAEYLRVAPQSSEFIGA

VEGFR-2 [12] = target: T3, VEGFR-2 (Homo sapiens, UniProt P35968); assay: Biochemical tyrosine kinase assay (trans-phosphorylation, GST-fusion protein); parameters: 789-end; purchased Sigma Aldrich K2643; conditions: in vitro kinase activity, ± SD
Target sequence in this assay (P35968 789-1356 limits assumed): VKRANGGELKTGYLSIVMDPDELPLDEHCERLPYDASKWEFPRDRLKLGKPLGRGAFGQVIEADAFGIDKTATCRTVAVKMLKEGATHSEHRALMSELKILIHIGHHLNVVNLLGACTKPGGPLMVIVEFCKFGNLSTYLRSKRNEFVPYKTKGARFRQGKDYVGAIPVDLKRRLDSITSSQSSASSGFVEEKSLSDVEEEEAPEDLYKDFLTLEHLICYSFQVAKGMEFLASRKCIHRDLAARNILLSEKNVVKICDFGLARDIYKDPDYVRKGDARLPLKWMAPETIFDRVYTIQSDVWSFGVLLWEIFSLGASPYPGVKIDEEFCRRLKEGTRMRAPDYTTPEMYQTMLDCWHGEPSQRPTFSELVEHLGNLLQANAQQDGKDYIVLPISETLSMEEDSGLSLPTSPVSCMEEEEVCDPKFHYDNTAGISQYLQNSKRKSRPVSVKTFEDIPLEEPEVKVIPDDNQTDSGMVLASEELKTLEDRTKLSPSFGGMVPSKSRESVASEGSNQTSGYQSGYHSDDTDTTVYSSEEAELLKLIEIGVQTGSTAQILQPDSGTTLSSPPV

VEGFR-2 [13] = target: T3, VEGFR-2; assay: Cellular ligand-dependent autophosphorylation assay (Western blot) in HUVEC; type: cell-based; parameters: host or cells: HUVEC; conditions: VEGF165 stimulated, ± SD
[14] = tested on: Tg(kdrl:gfp)^s843 transgenic embryos; type: in vivo; conditions: for intersomitic vessel (ISV) formation / angiogenic sprouting at 48 hpf: treated from 24 to 48 hpf
PDGFR-β [15] = target: T4, PDGFR-β (Homo sapiens, UniProt P09619); assay: Biochemical tyrosine kinase assay (trans-phosphorylation, GST-fusion protein); conditions: in vitro kinase activity, ± SD; read-out: IC50 PDGFR-b
T4 construct: 557-end; purchased Sigma Aldrich G8671
T4 sequence (P09619 557-1106 limits assumed): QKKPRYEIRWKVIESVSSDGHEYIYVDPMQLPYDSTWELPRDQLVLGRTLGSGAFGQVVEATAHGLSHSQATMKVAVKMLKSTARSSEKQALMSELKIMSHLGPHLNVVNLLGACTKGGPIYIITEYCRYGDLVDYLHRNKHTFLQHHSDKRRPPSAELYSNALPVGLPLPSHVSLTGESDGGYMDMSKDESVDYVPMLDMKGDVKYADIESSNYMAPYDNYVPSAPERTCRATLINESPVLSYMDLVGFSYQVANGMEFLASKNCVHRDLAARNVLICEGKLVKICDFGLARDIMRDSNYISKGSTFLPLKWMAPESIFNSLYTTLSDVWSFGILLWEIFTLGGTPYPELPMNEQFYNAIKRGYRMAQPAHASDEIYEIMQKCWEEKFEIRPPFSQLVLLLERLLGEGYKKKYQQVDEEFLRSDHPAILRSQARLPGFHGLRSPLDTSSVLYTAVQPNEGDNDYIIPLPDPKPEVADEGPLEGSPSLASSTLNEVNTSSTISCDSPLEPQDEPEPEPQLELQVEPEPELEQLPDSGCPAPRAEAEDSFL

HCC1954 xenograft [16] = assay: Immunohistochemistry (Ki-67, CD31) of tumor sections; type: in vivo, NOD/SCID mice
RET = target: T5, RET (Homo sapiens, UniProt P07949); assay: Biochemical tyrosine kinase assay (trans-phosphorylation, GST-fusion protein); conditions: in vitro kinase activity, ± SD
T5 construct: 658-end; purchased Sigma Aldrich R7782
T5 sequence (P07949 658-1063 limits assumed): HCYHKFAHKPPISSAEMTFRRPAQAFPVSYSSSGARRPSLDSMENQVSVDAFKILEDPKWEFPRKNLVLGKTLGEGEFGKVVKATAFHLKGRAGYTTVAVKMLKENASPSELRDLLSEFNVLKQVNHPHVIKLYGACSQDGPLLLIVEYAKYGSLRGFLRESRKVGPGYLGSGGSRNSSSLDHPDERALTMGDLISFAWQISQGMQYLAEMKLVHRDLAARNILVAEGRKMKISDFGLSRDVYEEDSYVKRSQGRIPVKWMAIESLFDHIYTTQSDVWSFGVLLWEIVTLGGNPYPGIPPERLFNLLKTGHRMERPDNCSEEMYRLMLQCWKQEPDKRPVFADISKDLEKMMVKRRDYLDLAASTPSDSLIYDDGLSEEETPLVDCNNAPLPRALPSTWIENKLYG

FLT3 = target: T6, FLT3 (Homo sapiens, UniProt P36888); assay: as above; conditions: in vitro kinase activity, ± SD
T6 construct: 571–993; purchased Sigma Aldrich F6432
T6 sequence (P36888 571-993): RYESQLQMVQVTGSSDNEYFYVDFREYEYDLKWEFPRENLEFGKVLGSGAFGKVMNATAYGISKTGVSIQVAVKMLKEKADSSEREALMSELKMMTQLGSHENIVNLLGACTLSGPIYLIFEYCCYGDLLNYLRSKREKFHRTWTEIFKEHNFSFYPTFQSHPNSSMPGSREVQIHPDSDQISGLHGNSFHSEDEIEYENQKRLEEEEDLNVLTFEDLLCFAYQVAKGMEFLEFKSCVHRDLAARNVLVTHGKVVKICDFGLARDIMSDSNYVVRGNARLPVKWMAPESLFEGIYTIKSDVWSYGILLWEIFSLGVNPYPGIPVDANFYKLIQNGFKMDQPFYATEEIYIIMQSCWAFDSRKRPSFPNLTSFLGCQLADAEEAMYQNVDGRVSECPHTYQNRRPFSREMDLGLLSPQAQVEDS

[17] = Whole embryo LC-MS/MS biodistribution (bioaccumulation); type: in vivo, zebrafish; conditions: 24h post drug exposure, 50 μM, data not shown
[18] = target: VEGFR-2, PDGFR-β, KIT, FLT3 and RET; assay: Biochemical tyrosine kinase assay, RTK panel summary; conditions: range over the RTK targets of sunitinib; read-out: IC50 over most of the RTKs
KIT = target: T7, KIT (Homo sapiens, UniProt P10721); assay: Biochemical tyrosine kinase assay (trans-phosphorylation, GST-fusion protein); conditions: in vitro kinase activity, ± SD
T7 construct: 544-end; purchased Sigma Aldrich C0624
T7 sequence (P10721 544-976 limits assumed): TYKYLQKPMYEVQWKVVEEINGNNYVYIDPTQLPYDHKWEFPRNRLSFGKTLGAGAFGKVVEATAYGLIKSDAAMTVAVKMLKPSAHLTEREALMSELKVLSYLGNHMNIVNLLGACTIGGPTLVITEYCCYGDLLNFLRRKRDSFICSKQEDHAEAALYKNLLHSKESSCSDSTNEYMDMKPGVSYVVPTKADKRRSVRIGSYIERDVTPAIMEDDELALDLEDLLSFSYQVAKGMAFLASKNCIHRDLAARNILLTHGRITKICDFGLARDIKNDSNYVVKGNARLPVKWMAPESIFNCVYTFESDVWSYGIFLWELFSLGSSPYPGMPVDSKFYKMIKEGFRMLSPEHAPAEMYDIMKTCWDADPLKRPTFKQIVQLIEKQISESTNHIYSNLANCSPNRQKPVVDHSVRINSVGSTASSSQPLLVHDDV

HUVEC = assay: MTT cytotoxicity assay; type: cell-based; conditions: Homo sapiens
[19] = Pharmacokinetic evaluation in blood by LC-MS/MS; type: in vivo, female NOD/SCID mice; conditions: for AUC(0-t) / Tmax / Cmax: 100 umol/kg; for AUC(0-t) / Cmax: ± S.D.; for AUC(0-t): read-out: AUC0-24
Experimental: The in vitro efficacy of SAP was followed by its pharmacokinetic evaluation in mice. Initially, the PK parameters of SAP were compared in an oral versus IP administration (Figure 3).
Figure 3 Pharmacokinetic evaluation of SAP Female NOD/SCID mice (n = 6) were dosed per os or IP with SAP (100 μmol/Kg) and blood samples were collected at selected time points. Drug levels of SAP were monitored by LC-MS/MS. The AUC for each treatment was calculated as a measure of drug exposure over time. TEXT PRINTED IN THE PICTURE: SAP: Cmax (μmol/L) (± S.D.): 0.2 (± 0.1) (Administration Route: per os; Dose (μmol/Kg): 100); tmax (h): 1 (Administration Route: per os; Dose (μmol/Kg): 100); AUC0-24 (± S.D.) (h) x (μmol/L): 2.5 (± 2.3) (Administration Route: per os; Dose (μmol/Kg): 100); Cmax (μmol/L) (± S.D.): 27 (± 3.6) (Administration Route: Intraperitoneal; Dose (μmol/Kg): 100); tmax (h): 0.25 (Administration Route: Intraperitoneal; Dose (μmol/Kg): 100); AUC0-24 (± S.D.) (h) x (μmol/L): 50.3 (± 15.3) (Administration Route: Intraperitoneal; Dose (μmol/Kg): 100)
All animal procedures were approved by the Bioethical Committee of BRFAA based on the European Directive 86/609. For pharmacokinetic studies, female NOD/SCID mice (Charles River, Italy) were used (8–10 weeks old, n = 6 per group). Dosing solutions of SAP (100 μmol/Kg) were prepared in 20% 2-hydroxypropyl β-Cyclodextrin in sterile water (HP-b-CD). SAP was administered intraperitoneally (IP) or orally and blood samples were collected and prepared as described previously.

[20] = female, NOD/SCID, mouse, ip, intraperitoneal, blood
[21] = female, NOD/SCID, mouse, po, per os, blood

SMILES: CCN(CC)CCNC(=O)c1c(C)[nH]c(/C=C2\C(=O)Nc3ccc(F)cc32)c1C [sunitinib, reference compound]
- tumour growth versus vehicle [1]: significant tumour growth inhibition
- IC50 (SKBR3): 13.2 µM
- tumour growth versus vehicle [2]: significant tumour growth inhibition
- %FS (Fractional Shortening) at one week post treatment [3]: 45.42 ± 0.11%
- IC50 (PDGFR-β [4]): 0.072 ± 0.019 µM
- concentration at 1 h (in vivo [5]): 10.8 ± 2.1 µM
- IC50 (HCC1954): 13.9 µM
- IC50 (ZR75-1): 11.4 µM
- AUC0−24 h [6]: 21.4 ± 3.6 h x μmol/L
- Cmax [6]: 6.5 ± 0.9 µM
- Tmax [6]: 15 min
- IC50 (T47D): 11.5 µM
- phosphorylation status of kinases in tumor extracts versus vehicle [7]: marked downregulation of pErk1/2 (Thr202/Tyr204), pAkt (Ser473) and pGSK3 (Ser9)
- white blood cell populations [8]: 2.24 ± 0.5 × 10^3 cells
- concentration at 1 h (in vivo [9]): 10.3 ± 3.7 µM
- IC50 (MCF7): 11.2 µM
- average tumor size at d18 (HCC1954 xenograft [10]): 152 ± 57 mm^3
- neo-angiogenesis upon sacrifice (HCC1954 xenograft [10]): only traces of newly formed blood vessels
- average tumor weight upon sacrifice (d18) (HCC1954 xenograft [10]): 0.07 ± 0.03 g

SMILES: Cc1[nH]c(/C=C2\C(=O)Nc3ccc(F)cc32)c(C)c1C(=O)NCCN1CCNCC1 [SAP]
- tumour growth versus vehicle [1]: significant tumour growth inhibition
- MDA-MB-231 migration in wound healing assay (MDA-MB-231): inhibited MDA-MB-231 migration
- IC50 (SKBR3): 15.5 µM
- tumour growth versus vehicle [2]: significant tumour growth inhibition
- %FS (Fractional Shortening) at one week post treatment [3]: 42.38 ± 0.76%
- %FS (Fractional Shortening), baseline measurement ([3]; before treatment): 47.48 ± 0.91%
- IC50 [11]: 6.5 to 15.8 µM
- IC50 (EGFR): > 10 µM
- IC50 (PDGFR-β [4]): 0.076 ± 0.022 µM
- IC50 (VEGFR-2 [12]): 0.075 µM
- IC50 (HCC1954): 13.5 µM
- IC50 (VEGFR-2 [13]): 0.052 ± 0.014 µM
- IC50 (ZR75-1): 14.1 µM
- toxic or off-target morphological phenotypes ([14]; 50 μM, 24h treatment): No toxic or off-target morphological phenotypes
- intersomitic vessel (ISV) formation / angiogenic sprouting at 48 hpf ([14]; 50 μM): uniform GFP expression in intersomitic vessels; also recorded: minor ISV formation inhibition
- intersomitic vessel (ISV) formation / angiogenic sprouting at 48 hpf ([14]; 100 μM): inhibited angiogenic sprouting; also recorded: more profound
- IC50 (PDGFR-β [15]): 0.093 µM
- average number of CD31+ cells in tumor sections (HCC1954 xenograft [16]; d18, vehicle 42.4 ± 8.3): 16.6 ± 7.1
- Ki-67 assessed PI (proliferation index) (HCC1954 xenograft [16]; d18, vehicle 82.3 ± 11.1): 19.2 ± 4.9%
- IC50 (T47D): 6.5 µM
- IC50 (RET): 0.102 µM
- IC50 (FLT3): 0.069 µM
- phosphorylation status of kinases in tumor extracts versus vehicle [7]: marked downregulation of pErk1/2 (Thr202/Tyr204), pAkt (Ser473) and pGSK3 (Ser9)
- uptake from fish embryos [17]: ~50%
- IC50 [18]: 0.061 to 0.102 µM
- IC50 (KIT): 0.061 µM
- white blood cell populations [8]: 2.54 ± 1.0 × 10^3 cells
- IC50 (HUVEC): 14.2 µM
- IC50 (MCF7): 10.3 µM
- concentration at 8 h ([19]; female, NOD/SCID, mouse, ip, 100 μmol/Kg, intraperitoneal, 100 umol/Kg, blood, 8 h post-dose, read-out: C8 h): 0.93 ± 0.3 µM
- AUC(0-t) ([19]; female, NOD/SCID, mouse, ip, intraperitoneal, 100 μmol/Kg, blood): 50.3 ± 15.3 µM·h
- Tmax [19, 20]: 15 min
- Cmax [19, 20]: 27 ± 3.6 µM
- AUC(0-t) ([19]; female, NOD/SCID, mouse, po, per os, 100 μmol/Kg, blood): 2.5 ± 2.3 µM·h
- Tmax [19, 21]: 60 min
- Cmax [19, 21]: 0.2 ± 0.1 µM
- time for which concentrations of at least 0.1 μmol/L are sustained post-dose ([19]; intraperitoneal, 100 umol/Kg): more than 8 h
- signs of discomfort or overt toxicity in treated mice ([19]; single dose 100 μmol/Kg, per os or IP): No signs of discomfort or overt toxicity
- average tumor size at d18 (HCC1954 xenograft [10]): 76 ± 52 mm^3
- neo-angiogenesis upon sacrifice (HCC1954 xenograft [10]): only traces of newly formed blood vessels
- average tumor weight upon sacrifice (d18) (HCC1954 xenograft [10]): 0.05 ± 0.02 g
